The subject of test [1] is Ovcar-3 (ovarian). The test can be described thus: In vitro cytotoxicity screen, alamar Blue assay. Type of test: cell-based. Particulars: Homo sapiens, 168 h, 7 days post exposure. How it is done: (§1) Human tumor cell lines were exposed continuously to varying concentrations of test agents, i.e., BTO-956, BTO-964, BTO966 and BTO-967) and the viability of the cells was measured at set time points (1, 3, and 7 days) using the alamar Blue™ assay. […] This fluorescence can be measured with a fluorimeter, whereby the signal is directly proportional to cell number.
(§2) Various tumor cell lines of human origin representing a wide diversity of cancer pheno- and genotypes were exposed in vitro to the agents to evaluate the drug's effective range. Tumor lines screened included MDA MB 231 (breast), MCF-7 (breast), MDA MB 468 (breast), Siha (squamous cell carcinoma), A549 (non-small cell lung), HL-60 (leukemia), Ovcar-3 (ovarian). The test agents were prepared in serial dilutions from 10 mM stock solutions in DMSO yielding a 66-fold dose range of 20 μM, 10 μM, 3 μM, 1 μM and 0.3 μM concentrations. In each case, cells were maintained at 37° C. under 5 percent CO2 in air. All cell lines were incubated in Dulbecco's modified Eagle medium (DMEM) supplemented with 10% heat-inactivated fetal bovine serum and graded doses of BTO-956, 964, 966, or 967. 5-Fluorouracil (5-FU) was included as a positive control in experiments with two of the cell lines. The experiments were conducted in 96-well tissue culture plates (Falcon) with an initial seeding density of 1000 cells per well in 250 μl aliquots. The next day, medium was replaced with 100 μl of drug dilutions in triplicate.
(§3) After a 7 day exposure to the various agents, the alamarBlue dye was diluted to 20% in DMEM, and 100 μl was added to each well. The cells were incubated for 8 hours until obvious color changes indicated sufficient amounts of reduced dye for quantitation. Relative cell number was evaluated by florimetry on a Millipore 2300 CytoFluor fluorescence measurement system. Measurements were taken directly from 96-well plates after excitation at 560 nm with concomitant emission at 590 nm.

The subject of test [2] is Siha (squamous cell carcinoma). The experiment in a line: In vitro cytotoxicity screen, alamar Blue assay. It is filed as cell-based. The following applies: Homo sapiens, 168 h, 7 days post exposure. How it is done: as §1, §2, §3
For test [3], the system named is MDA MB 231 (breast). The experiment in a line: In vitro cytotoxicity screen, alamar Blue assay. Type of test: cell-based. Particulars: Homo sapiens, 168 h; MDA MB 231; 7 days post exposure; read-out: IC50. How it is done:
as §1, §2, §3

Test [4] concerns MCF-7 (breast). The experiment in a line: In vitro cytotoxicity screen, alamar Blue assay. It is filed as cell-based. The following applies: Homo sapiens, MCF7, 168 h, 7 days post exposure. How it is done:
as §1, §2, §3

Test [5] relates to A549 (non-small cell lung). The test can be described thus: In vitro cytotoxicity screen, alamar Blue assay. Type of test: cell-based. The following applies: Homo sapiens, 168 h; A549; 7 days post exposure; read-out: IC50. How it is done: as §1, §2, §3
The test system of test [6] is MDA MB 468 (breast). The experiment in a line: In vitro cytotoxicity screen, alamar Blue assay. The following applies: Homo sapiens, 168 h, 7 days post exposure. Type of test: cell-based. The method, then: as §1, §2, §3
In test [7] the test system is met-1 mouse mammary tumors. The test can be described thus: In vivo efficacy against met-1 mouse mammary tumors. How it is done:
Mammary fat pads of Balb/c immunodeficient (nude) mice were implanted with 1 mm^3 of mammary tumor tissue. These mammary tumors originated from the met-1 mouse mammary tumor cell line and have been propagated by passaging in vivo. When palpable tumors appeared, animals were subdivided into various treatment groups and treated daily with intraperitoneal injections of control vehicle, BTO-967 (50 mg/kg), or BTO-964 (50 mg/kg). A group of untreated control animals was included in the study, because agents used in the vehicle for these test articles (DMSO/ethanol/CremophorEL/PEG 400, 1: 0.5 : 0.5: 6) were themselves found to have cytotoxic activity. Twice weekly, the volumes of the tumors in each animal in each group were measured to gather information on tumor growth (volume) as a function of type of treatment, dose, and time.

Consider `COC(=S)c1cc(I)c(Oc2ccc(OC)cc2)c(I)c1` [BTO-967, methyl 3,5-diiodo-4-(4'-methoxyphenoxy)thiobenzoate], for which the IC50 in test [1] was found to be 800 nM; in test [2] it was 20000 nM; in test [3], 2000 nM; in test [4], 1000 nM; in test [5] it was 5500 nM; in test [6], 1500 nM.

As to `COc1ccc(Oc2c(I)cc(C=O)cc2I)cc1` [BTO-964, 3,5-Diiodo-4-(4'-methoxyphenoxy)benzadehyde], the “response of Met-1 tumors to treatment” value in test [7] (50 mg/kg daily i.p.) is listed as “positive response”. In addition, the “Tumor Volume (mm^3)” value in test [7] (50 mg/kg daily intraperitoneal, 4 weeks post initiation of treatment, mean ± SEM, vehicle 1238 ± 170, none 1570 ± 219) came to 876±126 mm^3. Besides, the IC50 was 1800 nM in test [1]; 17000 nM in test [2]; 2000 nM in test [3]; 2400 nM in test [4]; > 20000 nM in test [5]; 4000 nM in test [6].

Values taken from patent US6169104A, “Di-aryl ethers and their derivatives as anti-cancer agents” (Large Scale Biology Corporation, priority 1998, dated 2001).
